Experimental data from publication PMC9671780 (Bioorganic Chemistry, 2022).
Converted amounts (≈) assume the structure as drawn.

What was measured:
SARS-CoV-2 M^pro = SARS-CoV-2 M^pro (Severe acute respiratory syndrome coronavirus 2, UniProt P0DTD1); test: biochemical; conditions: for IC50: IC50 against SARS-CoV-2 M^pro, Table 1 and text
SARS-CoV-2 = format: cell-based; conditions: for Antiviral Potency Index (API): ratio of % inhibition to that of remdesivir at 10 µM; for SARS-CoV-2 Antiviral Assay (%) inhibition of viral replication: 10 µM
in vitro = conditions: African green monkey, Vero E6 Cytotoxicity (IC50), MTT
Vero E6 cells = conditions: for IC50: read-out: Vero E6 Cytotoxicity (IC50), MTT
TNF-α = test: Carrageenan-induced paw edema in rats: serum TNF-α; format: in vivo, Sprague Dawley Rat; conditions: male rats, 100 mg/kg, 6 h after carrageenan
IL-6 = test: Carrageenan-induced paw edema in rats: serum IL-6; format: in vivo, Sprague Dawley Rat; conditions: male rats, 100 mg/kg, 6 h after carrageenan
PBS solubility screening = format: physicochemical; conditions: for Solubility note: PBS; for solubility: phosphate-buffered saline, aqueous buffer, kinetic from dmso stock
[1] = Enzymatic metabolic stability; format: in vitro ADME

| SMILES | IC50 (SARS-CoV-2 M^pro) [µM] | Antiviral Potency Index (API) (SARS-CoV-2) | IC50 (in vitro) [µM] | other results |
| --- | --- | --- | --- | --- |
| Cc1nn(-c2ccc(Cl)cc2)c2c1C(c1ccc(Cl)cc1)C(C#N)=C(N)O2 (stereo not drawn) [Compound 18, 6-Amino-1-(4-chlorophenyl)-4-(4-chlorophenyl)-3-methyl-1,4-dihydropyrano[2,3-c]pyrazole-5-carbonitrile] | 12.8 ± 0.6 | 0.74 | 60.5 ± 4.6 | – |
| Cc1nn(-c2ccc(Cl)cc2)c2c1C(c1ccc(Br)cc1)C(C#N)=C(N)O2 (stereo not drawn) [Compound 19, 6-Amino-4-(4-bromophenyl)-1-(4-chlorophenyl)-3-methyl-1,4-dihydropyrano[2,3-c]pyrazole-5-carbonitrile] | 30.9 ± 1.6 | 0.45 | 26.2 ± 20 | – |
| Cc1nn(-c2ccc(Cl)cc2)c2c1C(c1ccc(I)cc1)C(C#N)=C(N)O2 (stereo not drawn) [Compound 20, 6-Amino-1-(4-chlorophenyl)-4-(4-iodophenyl)-3-methyl-1,4-dihydropyrano[2,3-c]pyrazole-5-carbonitrile] | 69.1 ± 3.5 | 0.62 | 103 ± 7.8 | – |
| COc1ccc(C2C(C#N)=C(N)Oc3c2c(C)nn3-c2ccc(Cl)cc2)cc1 (stereo not drawn) [Compound 21, 6-Amino-1-(4-chlorophenyl)-4-(4-methoxyphenyl)-3-methyl-1,4-dihydropyrano[2,3-c]pyrazole-5-carbonitrile] | 24.6 ± 1.2 | 0.49 | 78.1 ± 5.9 | – |
| Cc1nn(-c2ccc(Cl)cc2)c2c1C(c1ccc(O)cc1)C(C#N)=C(N)O2 (stereo not drawn) [Compound 22, 6-Amino-1-(4-chlorophenyl)-4-(4-hydroxyphenyl)-3-methyl-1,4-dihydropyrano[2,3-c]pyrazole-5-carbonitrile] | – | – | > 60 | Mode of binding from kinetic analysis (SARS-CoV-2 M^pro): reversibly and non-competitively with non-covalent interactions; IC50 (Vero E6 cells): 67.7 ± 5.2 µM |
| Cc1nn(-c2ccc(Cl)cc2)c2c1C(c1ccc([N+](=O)[O-])cc1)C(C#N)=C(N)O2 (stereo not drawn) [Compound 23, 6-Amino-1-(4-chlorophenyl)-4-(4-nitrophenyl)-3-methyl-1,4-dihydropyrano[2,3-c]pyrazole-5-carbonitrile] | 9.5 ± 0.51 | 0.64 | 113 ± 8.6 | – |
| Cc1nn(-c2ccc(Cl)cc2)c2c1C(c1ccc(-c3ccccc3)cc1)C(C#N)=C(N)O2 (stereo not drawn) [Compound 24, 4-([1,1′-Biphenyl]-4-yl)-6-amino-1-(4-chlorophenyl)-3-methyl-1,4-dihydropyrano[2,3-c]pyrazole-5-carbonitrile] | 39.8 ± 2.2 | 0.54 | 60.7 ± 4.6 | – |
| Cc1nn(-c2ccc(Cl)cc2)c2c1C(c1ccc(F)cc1F)C(C#N)=C(N)O2 (stereo not drawn) [Compound 25, 6-Amino-1-(4-chlorophenyl)-4-(2,4-difluorophenyl)-3-methyl-1,4-dihydropyrano[2,3-c]pyrazole-5-carbonitrile] | 192 ± 9.8 | 0.52 | 47.6 ± 3.6 | – |
| Cc1nn(-c2ccc(Cl)cc2)c2c1C(c1cccc(Cl)c1Cl)C(C#N)=C(N)O2 (stereo not drawn) [Compound 26, 6-Amino-1-(4-chlorophenyl)-4-(2,3-dichlorophenyl)-3-methyl-1,4-dihydropyrano[2,3-c]pyrazole-5-carbonitrile] | – | – | 34.8 ± 2.7 | – |
| Cc1nn(-c2ccc(Cl)cc2)c2c1C(c1ccc(Cl)cc1Cl)C(C#N)=C(N)O2 (stereo not drawn) [Compound 27, 6-Amino-1-(4-chlorophenyl)-4-(2,4-dichlorophenyl)-3-methyl-1,4-dihydropyrano[2,3-c]pyrazole-5-carbonitrile] | – | 0.98 | > 60 | Mode of binding from kinetic analysis (SARS-CoV-2 M^pro): reversibly and non-competitively with non-covalent interactions; SARS-CoV-2 Antiviral Assay (%) inhibition of viral replication (SARS-CoV-2): 91.23 ± 0.25%; Serum level of TNF-α (TNF-α): 385 pg/mL; Serum level of IL-6 (IL-6): 64 pg/mL; Solubility note (PBS solubility screening): Moderate aqueous solubility; solubility (PBS solubility screening): 22.4 µM (≈ 9.67 µg/mL); Metabolic rate [1]: intermediate clearance rate; microsomal CLint [1]: 54.6 µL/min/mg; half-life ([1]; Intrinsic half-life (t1/2)): > 2 h; half-life ([1]; Mean t1/2): 2.23 h; IC50 (Vero E6 cells): 62 ± 4.7 µM |
| Cc1nn(-c2ccc(Cl)cc2)c2c1C(c1cc(Cl)ccc1Cl)C(C#N)=C(N)O2 (stereo not drawn) [Compound 28, 6-Amino-1-(4-chlorophenyl)-4-(2,5-dichlorophenyl)-3-methyl-1,4-dihydropyrano[2,3-c]pyrazole-5-carbonitrile] | – | – | 131 ± 10 | – |
| Cc1nn(-c2ccc(Cl)cc2)c2c1C(c1c(Cl)cccc1Cl)C(C#N)=C(N)O2 (stereo not drawn) [Compound 29, 6-Amino-1-(4-chlorophenyl)-4-(2,6-dichlorophenyl)-3-methyl-1,4-dihydropyrano[2,3-c]pyrazole-5-carbonitrile] | 44.6 | 0.50 | 63.3 ± 4.8 | – |
| Cc1nn(-c2ccc(Cl)cc2)c2c1C(c1ccc(Cl)c(Cl)c1)C(C#N)=C(N)O2 (stereo not drawn) [Compound 30, 6-Amino-1-(4-chlorophenyl)-4-(3,4-dichlorophenyl)-3-methyl-1,4-dihydropyrano[2,3-c]pyrazole-5-carbonitrile] | – | 0.30 | 66.5 ± 5.1 | SARS-CoV-2 Antiviral Assay (%) inhibition of viral replication (SARS-CoV-2): 27.84 ± 0.14% |
| CCOc1ccc(C2C(C#N)=C(N)Oc3c2c(C)nn3-c2ccc(Cl)cc2)cc1 (stereo not drawn) [Compound 31, 6-Amino-1-(4-chlorophenyl)-4-(4-ethoxyphenyl)-3-methyl-1,4-dihydropyrano[2,3-c]pyrazole-5-carbonitrile] | 4.6 ± 0.25 | 0.81 | 18.1 ± 1.4 | – |
| COc1cc(C2C(C#N)=C(N)Oc3c2c(C)nn3-c2ccc(Cl)cc2)ccc1O (stereo not drawn) [Compound 32, 6-Amino-1-(4-chlorophenyl)-4-(4-hydroxy-3-methoxyphenyl)-3-methyl-1,4-dihydropyrano[2,3-c]pyrazole-5-carbonitrile] | – | – | 45.7 ± 3.5 | – |
| COc1cc(C2C(C#N)=C(N)Oc3c2c(C)nn3-c2ccc(Cl)cc2)cc(OC)c1OC (stereo not drawn) [Compound 33, 6-Amino-1-(4-chlorophenyl)-4-(3,4,5-trimethoxyphenyl)-3-methyl-1,4-dihydropyrano[2,3-c]pyrazole-5-carbonitrile] | 22.1 ± 1.1 | 0.83 | 86.2 ± 6.6 | – |
| CC(C)NCC(O)COc1cccc2ccccc12 (stereo not drawn) [Propranolol, reference compound] | – | – | – | half-life ([1]; Mean t1/2): 2.4 h |
| CCC(CC)COC(=O)[C@H](C)N[P@](=O)(OC[C@H]1O[C@@](C#N)(c2ccc3c(N)ncnn23)[C@H](O)[C@@H]1O)Oc1ccccc1 [Remdesivir, reference compound] | – | – | 61.8 ± 4.7 | Cytotoxicity to Vero E6 cells (Vero E6 cells; at 60 μM): no cytotoxicity |
| CO[C@H]1/C=C/O[C@@]2(C)Oc3c(C)c(O)c4c(O)c(c(/C=N/N5CCN(C)CC5)c(O)c4c3C2=O)NC(=O)/C(C)=C\C=C\[C@H](C)[C@H](O)[C@@H](C)[C@@H](O)[C@@H](C)[C@H](OC(C)=O)[C@@H]1C [Rifampicin, reference compound] | – | – | – | Solubility note (PBS solubility screening): Reference with good solubility; solubility (PBS solubility screening): 179 µM (≈ 148 µg/mL) |
